Measured values reported in the supplement of paper PMC12463676, “Small-molecule dissolution of stress granules by redox modulation benefits ALS models” (Nature Chemical Biology, 2025).

Key:
lipoamide = compound: NC(=O)CCCCC1CCSS1 [lipoamide]; experiment: thermal stability z-score vs DMSO; higher = more thermally stabilized by treatment; conditions: HeLa, lipoamide concentration 100 µM
Method: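 Cellular thermal proteome profiling in HeLa cells. Cells were treated with 100 µM lipoamide for 1 h, with or without 1 mM arsenate for a further 1 h, then heated to ten temperatures (37-66.3 °C), and soluble protein was quantified by TMT mass spectrometry relative to 0.1% DMSO controls. The thermal stability score (sum of log2 fold changes minus the abundance score) was transformed to a z-score; mean of n = 3 experiments.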

potassium arsenate = compound: O=[As]([O-])(O)O.[K+] [potassium arsenate]; experiment: as above; conditions: HeLa; arsenate concentration 1 mM
Method: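 Cellular thermal proteome profiling in HeLa cells treated with 1 mM arsenate for 1 h (DMSO pretreatment), heated to ten temperatures (37-66.3 °C). Soluble protein was quantified by TMT mass spectrometry relative to DMSO controls; the thermal stability score was transformed to a z-score; mean of n = 3 experiments.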

[1] = arsenate co-treatment: 1 mM arsenate 1 h
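Further: each temperature applied for 3 min, abundance score taken as mean log2 fold change at the two lowest temperatures, z-score obtained by mean subtraction and division by SD.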

Chain of UniProt O60346 (O60346 whole entry): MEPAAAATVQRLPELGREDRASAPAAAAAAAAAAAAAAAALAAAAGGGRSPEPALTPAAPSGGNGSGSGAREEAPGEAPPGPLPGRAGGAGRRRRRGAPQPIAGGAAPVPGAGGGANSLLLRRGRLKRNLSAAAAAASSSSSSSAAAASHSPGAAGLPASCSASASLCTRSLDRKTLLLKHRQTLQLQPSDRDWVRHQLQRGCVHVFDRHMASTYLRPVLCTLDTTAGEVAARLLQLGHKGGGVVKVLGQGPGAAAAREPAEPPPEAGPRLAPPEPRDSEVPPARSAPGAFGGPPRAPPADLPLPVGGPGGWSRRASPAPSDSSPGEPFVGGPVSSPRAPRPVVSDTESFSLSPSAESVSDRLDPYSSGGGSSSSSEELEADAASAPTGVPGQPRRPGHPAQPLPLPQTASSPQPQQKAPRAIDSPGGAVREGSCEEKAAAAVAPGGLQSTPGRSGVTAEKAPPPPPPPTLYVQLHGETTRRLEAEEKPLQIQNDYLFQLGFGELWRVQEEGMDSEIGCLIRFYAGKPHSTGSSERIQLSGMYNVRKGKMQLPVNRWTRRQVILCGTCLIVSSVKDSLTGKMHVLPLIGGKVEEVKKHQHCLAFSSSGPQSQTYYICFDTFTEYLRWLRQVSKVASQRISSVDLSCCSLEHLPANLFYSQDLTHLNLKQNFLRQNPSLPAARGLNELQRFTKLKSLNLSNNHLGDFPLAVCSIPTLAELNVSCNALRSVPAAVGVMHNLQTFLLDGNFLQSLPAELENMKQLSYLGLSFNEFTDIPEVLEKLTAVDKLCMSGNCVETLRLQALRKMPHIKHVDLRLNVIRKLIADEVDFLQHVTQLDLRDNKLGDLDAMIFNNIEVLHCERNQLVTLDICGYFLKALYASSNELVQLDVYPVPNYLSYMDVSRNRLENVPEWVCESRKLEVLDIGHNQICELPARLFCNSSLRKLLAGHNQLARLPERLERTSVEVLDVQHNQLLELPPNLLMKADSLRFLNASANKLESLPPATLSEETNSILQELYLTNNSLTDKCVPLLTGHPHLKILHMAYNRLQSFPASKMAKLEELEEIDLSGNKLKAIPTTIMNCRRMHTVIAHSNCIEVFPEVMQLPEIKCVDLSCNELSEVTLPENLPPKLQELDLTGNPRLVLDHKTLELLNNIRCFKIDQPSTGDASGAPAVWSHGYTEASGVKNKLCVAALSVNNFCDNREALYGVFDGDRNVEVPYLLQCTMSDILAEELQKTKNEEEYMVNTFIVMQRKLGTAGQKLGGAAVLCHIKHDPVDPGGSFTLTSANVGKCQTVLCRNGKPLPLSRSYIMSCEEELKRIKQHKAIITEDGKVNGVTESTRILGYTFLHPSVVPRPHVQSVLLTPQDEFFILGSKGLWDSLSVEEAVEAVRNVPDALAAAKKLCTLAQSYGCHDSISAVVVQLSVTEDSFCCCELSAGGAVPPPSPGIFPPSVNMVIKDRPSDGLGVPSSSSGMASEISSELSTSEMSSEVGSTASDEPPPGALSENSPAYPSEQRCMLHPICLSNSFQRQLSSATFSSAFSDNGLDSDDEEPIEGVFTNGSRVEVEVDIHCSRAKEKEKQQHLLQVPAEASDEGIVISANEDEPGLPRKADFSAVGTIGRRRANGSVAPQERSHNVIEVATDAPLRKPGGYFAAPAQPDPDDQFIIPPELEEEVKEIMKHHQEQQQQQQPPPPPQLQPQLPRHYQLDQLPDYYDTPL
Chain of UniProt Q16875 (Q16875 whole entry): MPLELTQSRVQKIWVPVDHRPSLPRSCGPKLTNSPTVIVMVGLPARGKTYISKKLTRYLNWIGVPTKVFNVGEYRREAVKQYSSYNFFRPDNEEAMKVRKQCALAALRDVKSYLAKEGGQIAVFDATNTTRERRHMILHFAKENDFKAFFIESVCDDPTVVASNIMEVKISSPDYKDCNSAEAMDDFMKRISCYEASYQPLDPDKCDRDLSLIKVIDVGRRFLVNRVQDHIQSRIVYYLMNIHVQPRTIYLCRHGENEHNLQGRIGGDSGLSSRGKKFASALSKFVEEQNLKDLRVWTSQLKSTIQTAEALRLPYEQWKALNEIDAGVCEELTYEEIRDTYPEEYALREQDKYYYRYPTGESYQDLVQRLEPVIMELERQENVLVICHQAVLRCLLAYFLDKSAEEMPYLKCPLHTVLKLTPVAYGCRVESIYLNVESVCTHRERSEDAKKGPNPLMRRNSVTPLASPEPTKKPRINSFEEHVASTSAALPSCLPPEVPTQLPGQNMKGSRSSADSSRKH
Chain of UniProt O00264 (O00264 whole entry): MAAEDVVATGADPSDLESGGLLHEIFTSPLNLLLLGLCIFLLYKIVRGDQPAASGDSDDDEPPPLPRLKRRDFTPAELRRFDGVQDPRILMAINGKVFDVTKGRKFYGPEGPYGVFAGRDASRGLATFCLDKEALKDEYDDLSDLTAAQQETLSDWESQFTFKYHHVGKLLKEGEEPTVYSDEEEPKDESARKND
Chain of UniProt Q8TCG2 (Q8TCG2 whole entry): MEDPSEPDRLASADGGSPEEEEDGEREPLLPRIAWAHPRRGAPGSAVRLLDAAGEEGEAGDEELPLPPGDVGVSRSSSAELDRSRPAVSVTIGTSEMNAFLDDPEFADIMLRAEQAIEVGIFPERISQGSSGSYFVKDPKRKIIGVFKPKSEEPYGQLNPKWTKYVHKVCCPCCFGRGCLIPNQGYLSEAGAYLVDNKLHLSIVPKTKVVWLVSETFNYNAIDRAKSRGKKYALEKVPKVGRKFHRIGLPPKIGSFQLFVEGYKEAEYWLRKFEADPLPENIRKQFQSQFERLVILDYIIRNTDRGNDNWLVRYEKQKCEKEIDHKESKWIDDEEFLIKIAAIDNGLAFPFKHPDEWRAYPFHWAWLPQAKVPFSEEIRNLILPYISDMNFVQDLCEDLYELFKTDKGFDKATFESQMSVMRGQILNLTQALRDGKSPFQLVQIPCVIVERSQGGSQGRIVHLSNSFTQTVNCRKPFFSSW
Chain of UniProt O94880 (O94880 whole entry): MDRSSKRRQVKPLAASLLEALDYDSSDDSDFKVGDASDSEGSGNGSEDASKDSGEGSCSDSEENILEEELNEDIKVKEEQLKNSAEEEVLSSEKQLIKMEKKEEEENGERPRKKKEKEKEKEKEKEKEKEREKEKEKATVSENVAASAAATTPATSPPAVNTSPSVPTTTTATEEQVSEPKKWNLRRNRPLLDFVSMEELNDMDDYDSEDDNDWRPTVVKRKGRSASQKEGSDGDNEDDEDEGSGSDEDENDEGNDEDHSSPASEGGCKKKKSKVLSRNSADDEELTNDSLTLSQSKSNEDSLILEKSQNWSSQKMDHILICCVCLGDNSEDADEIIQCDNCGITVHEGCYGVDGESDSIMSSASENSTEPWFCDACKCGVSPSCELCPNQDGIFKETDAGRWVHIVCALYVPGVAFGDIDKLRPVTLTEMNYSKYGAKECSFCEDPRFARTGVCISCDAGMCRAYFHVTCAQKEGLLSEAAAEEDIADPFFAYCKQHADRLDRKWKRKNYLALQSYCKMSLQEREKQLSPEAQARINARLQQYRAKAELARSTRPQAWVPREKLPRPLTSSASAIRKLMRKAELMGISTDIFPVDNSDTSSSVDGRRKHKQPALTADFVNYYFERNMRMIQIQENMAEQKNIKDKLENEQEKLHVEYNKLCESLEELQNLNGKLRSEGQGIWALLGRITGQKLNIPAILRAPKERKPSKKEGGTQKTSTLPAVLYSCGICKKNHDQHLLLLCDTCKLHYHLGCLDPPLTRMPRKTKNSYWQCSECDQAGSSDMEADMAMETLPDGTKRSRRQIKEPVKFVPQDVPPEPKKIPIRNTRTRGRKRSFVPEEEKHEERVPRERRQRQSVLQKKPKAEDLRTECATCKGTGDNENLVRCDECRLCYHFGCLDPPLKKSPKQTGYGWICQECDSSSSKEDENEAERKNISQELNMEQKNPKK
Chain of UniProt Q15121 (Q15121 whole entry): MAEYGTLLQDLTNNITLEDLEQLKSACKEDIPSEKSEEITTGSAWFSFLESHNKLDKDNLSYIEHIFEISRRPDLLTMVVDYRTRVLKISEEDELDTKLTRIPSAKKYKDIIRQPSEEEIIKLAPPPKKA
Chain of UniProt Q9Y5Y5 (Q9Y5Y5 whole entry): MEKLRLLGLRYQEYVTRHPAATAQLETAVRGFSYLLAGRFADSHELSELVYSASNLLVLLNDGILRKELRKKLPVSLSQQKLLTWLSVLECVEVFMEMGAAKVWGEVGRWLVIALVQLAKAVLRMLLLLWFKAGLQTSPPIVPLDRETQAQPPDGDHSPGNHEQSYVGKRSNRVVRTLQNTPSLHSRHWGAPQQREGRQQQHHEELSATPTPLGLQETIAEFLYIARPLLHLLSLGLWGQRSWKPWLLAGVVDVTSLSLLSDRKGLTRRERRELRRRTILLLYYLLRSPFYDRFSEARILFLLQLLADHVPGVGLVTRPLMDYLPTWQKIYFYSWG
Chain of UniProt A6NDG6 (A6NDG6 whole entry): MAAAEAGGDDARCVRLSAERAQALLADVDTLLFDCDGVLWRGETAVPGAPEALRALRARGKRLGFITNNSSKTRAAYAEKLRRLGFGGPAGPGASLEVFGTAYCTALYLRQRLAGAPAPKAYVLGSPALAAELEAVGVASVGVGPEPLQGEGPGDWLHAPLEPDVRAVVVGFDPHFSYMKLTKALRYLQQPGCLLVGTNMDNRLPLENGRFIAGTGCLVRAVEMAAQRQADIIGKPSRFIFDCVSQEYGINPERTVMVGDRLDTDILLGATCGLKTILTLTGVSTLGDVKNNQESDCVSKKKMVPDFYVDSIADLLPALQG
Chain of UniProt Q99471 (Q99471 whole entry): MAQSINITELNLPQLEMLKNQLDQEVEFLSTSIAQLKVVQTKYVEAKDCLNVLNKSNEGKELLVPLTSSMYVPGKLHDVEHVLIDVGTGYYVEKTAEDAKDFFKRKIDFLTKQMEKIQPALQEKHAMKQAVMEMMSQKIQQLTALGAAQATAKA
Chain of UniProt Q9UHV9 (Q9UHV9 whole entry): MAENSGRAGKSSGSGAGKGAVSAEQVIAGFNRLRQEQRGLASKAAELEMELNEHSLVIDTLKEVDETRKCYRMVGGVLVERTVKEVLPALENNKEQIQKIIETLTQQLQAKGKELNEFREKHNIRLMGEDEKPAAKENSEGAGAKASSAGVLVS

Target | thermal stability z-score (lipoamide; [1]) | thermal stability z-score (lipoamide; arsenate co-treatment: none) | thermal stability z-score (potassium arsenate)
PDZD11 (UniProt Q5EBL8) | -0.0819 | -0.0179 | 0.0963
PEA15 (UniProt Q15121) | 0.388 | 0.243 | 0.716
PEBP1 (UniProt P30086) | 0.203 | 0.0137 | -0.433
PEF1 (UniProt Q9UBV8) | 0.534 | 0.979 | 0.494
PEG10 (UniProt Q86TG7) | -0.289 | -0.464 | -0.109
PELO (UniProt Q9BRX2) | -0.811 | -0.364 | -0.0213
PELP1 (UniProt Q8IZL8) | 1.14 | 0.206 | 0.449
PEO1 (UniProt Q96RR1) | -0.0405 | 0.0511 | 0.122
PEPD (UniProt P12955) | 0.359 | 0.112 | -0.732
PER1 (UniProt O15534) | 0.107 | -0.119 | -0.023
PES1 (UniProt O00541) | -0.108 | 0.121 | -0.721
PEX1 (UniProt O43933) | -0.254 | -0.723 | -0.382
PEX3 (UniProt P56589) | -0.415 | -0.151 | -0.285
PEX5 (UniProt P50542) | -0.624 | -0.706 | 0.137
PEX6 (UniProt Q13608) | 0.132 | 0.339 | 0.938
PEX11B (UniProt O96011) | -0.443 | -0.349 | -0.497
PEX13 (UniProt Q92968) | 0.444 | 0.834 | 0.284
PEX14 (UniProt O75381) | -0.54 | -0.596 | -0.269
PEX16 (UniProt Q9Y5Y5) | -1.58 | -0.719 | -0.441
PEX19 (UniProt P40855) | 1.96 | 1.51 | 1.13
PFAS (UniProt O15067) | -0.279 | 0.208 | -1.25
PFDN1 (UniProt O60925) | 1.42 | 1.53 | 0.744
PFDN2 (UniProt Q9UHV9) | 0.967 | 1.21 | 0.132
PFDN4 (UniProt Q9NQP4) | 0.286 | 0.37 | -0.445

Target | thermal stability z-score (lipoamide; [1]) | thermal stability z-score (lipoamide; arsenate co-treatment: none) | thermal stability z-score (potassium arsenate)
PFDN5 (UniProt Q99471) | 1.81 | 1.27 | 1.22
PFDN6 (UniProt O15212) | 1.95 | 2.18 | 1.42
PFKFB2 (UniProt O60825) | 0.137 | 0.1 | -0.631
PFKFB3 (UniProt Q16875) | -0.179 | -0.149 | 0.00649
PFKL (UniProt P17858) | 0.344 | 0.367 | 0.476
PFKM (UniProt P08237) | 0.24 | 0.235 | -0.134
PFKP (UniProt Q01813) | 0.365 | 0.542 | 0.0448
PGAM1 (UniProt P18669) | -0.0445 | 0.244 | -0.0878
PGAM5 (UniProt Q96HS1) | 0.0875 | 0.709 | 0.701
PGD (UniProt P52209) | 0.318 | 0.403 | 0.259
PGGT1B (UniProt P53609) | -0.242 | 0.0735 | 0.268
PGK1 (UniProt P00558) | 0.239 | 0.256 | -0.469
PGLS (UniProt O95336) | 0.924 | -0.683 | -1.3
PGM1 (UniProt P36871) | -0.181 | -0.205 | -0.103
PGM2 (UniProt Q96G03) | -0.0134 | -0.155 | -0.24
PGM2L1 (UniProt Q6PCE3) | 0.405 | 0.129 | 0.314
PGM3 (UniProt O95394) | 0.0643 | -0.0248 | 0.188
PGP (UniProt A6NDG6) | 0.339 | -0.0409 | -0.245
PGRMC1 (UniProt O00264) | 0.421 | 0.452 | 0.982
PGRMC2 (UniProt O15173) | 0.682 | 0.466 | 0.479
PGS1 (UniProt Q32NB8) | 0.522 | 0.683 | -0.266
PHACTR2 (UniProt O75167) | 0.56 | -0.408 | -0.387
PHACTR4 (UniProt Q8IZ21) | 0.747 | 0.22 | -0.282
PHAX (UniProt Q9H814) | 0.329 | 0.358 | 0.321

Target | thermal stability z-score (lipoamide; [1]) | thermal stability z-score (lipoamide; arsenate co-treatment: none) | thermal stability z-score (potassium arsenate)
PHB2 (UniProt Q99623) | 0.27 | 0.289 | 0.108
PHB (UniProt P35232) | 0.394 | 0.55 | 0.222
PHF3 (UniProt Q92576) | 1.05 | 0.76 | -0.848
PHF5A (UniProt Q7RTV0) | 0.703 | 0.339 | -5.28
PHF6 (UniProt Q8IWS0) | -0.33 | -0.552 | -3.52
PHF10 (UniProt Q8WUB8) | -0.191 | -0.061 | -0.359
PHF14 (UniProt O94880) | -0.247 | 0.314 | -0.242
PHF23 (UniProt Q9BUL5) | 0.843 | 0.376 | -3.81
PHGDH (UniProt O43175) | 1.08 | 0.761 | -2.42
PHKA1 (UniProt P46020) | -0.125 | -0.051 | 0.0887
PHKA2 (UniProt P46019) | -0.174 | 0.096 | -0.0062
PHKB (UniProt Q93100) | 0.125 | 0.135 | 0.278
PHKG2 (UniProt P15735) | 0.926 | 1.04 | 0.714
PHLDA2 (UniProt Q53GA4) | -0.116 | 0.13 | 1.41
PHLDB1 (UniProt Q86UU1) | -0.559 | 0.362 | 0.2
PHLDB2 (UniProt Q86SQ0) | -1.07 | -0.89 | -0.277
PHLPP1 (UniProt O60346) | 0.138 | -0.144 | -0.061
PHPT1 (UniProt Q9NRX4) | 0.922 | 0.553 | -1.95
PHYH (UniProt O14832) | 0.0197 | -0.12 | -0.196
PHYHD1 (UniProt Q5SRE7) | -0.0705 | 0.173 | 0.196
PI4K2A (UniProt Q9BTU6) | 0.0172 | -0.189 | -0.0745
PI4K2B (UniProt Q8TCG2) | -0.541 | 0.209 | -0.451
PI4KA (UniProt P42356) | -0.343 | -0.333 | -0.732
PI4KB (UniProt Q9UBF8) | -0.62 | 0.386 | 0.692
